Values belong to the compound of their own block, whether it stands above or below them.
Columns and labels:
[1] = tested on: MCF7 (breast adenocarcinoma, Rb-positive); experiment: Cellular proliferation assay (CellTiter-Glo), MCF7; format: cell-based
Protocol: The MCF7 cells were seeded in Costar (Tewksbury, Mass.) 3903 96 well tissue culture treated white walled/clear bottom plates. A nine point dose response dilution series from 10 uM to 1 nM was performed and cell viability was determined after six days of compound treatment as indicated using the CellTiter-Glo® luminescent cell viability assay (CTG; Promega, Madison, Wis., United States of America) following the manufacturer's recommendations. Plates were read on a BioTek (Winooski, Vt.) Syngergy2 multi-mode plate reader. The Relative Light Units (RLU) were plotted as a result of variable molar concentration and data was analyzed using Graphpad (LaJolla, Calif.) Prism 5 statistical software to determine the EC50 for each compound.
(§1) Cellular proliferation assays were conducted using the following cancer cell lines: MCF7 (breast adenocarcinoma—Rb-positive), ZR-75-1 (breast ductal carcinoma—Rb-positive), H69 (human small cell lung cancer—Rb-negative) cells, or A2058 (human metastatic melanoma cells—Rb-negative). These cells were seeded in Costar (Tewksbury, Mass.) […] 96 well tissue culture treated white walled/clear bottom plates. Cells were treated with the compounds of Table 1 as nine point dose response dilution series from 10 uM to 1 nM. Cells were exposed to compounds and then cell viability was determined after either four (H69) or six (MCF7, ZR75-1, A2058) days as indicated using the CellTiter-Glo® luminescent cell viability assay (CTG; Promega, Madison, Wis., United States of America) following the manufacturer's recommendations. Plates were read on BioTek (Winooski, Vt.) Syngergy2 multi-mode plate reader. The Relative Light Units (RLU) were plotted as a result of variable molar concentration and data was analyzed using Graphpad (LaJolla, Calif.) Prism 5 statistical software to determine the EC50 for each compound.

[2] = tested on: ZR-75-1 (breast ductal carcinoma, Rb-positive); experiment: Cellular proliferation assay (CellTiter-Glo), ZR-75-1; format: cell-based
Protocol: as §1

[3] = Mouse pharmacokinetics (oral gavage / intravenous); format: in vivo, mice; settings: plasma, 30 mg/kg, read-out: F (oral bioavailability)
Protocol: Blood samples were taken at 0, 0.25, 0.5, 1.0, 2.0, 4.0, and 8.0 hours post dosing and the plasma concentrations were determined by HPLC.

HSPCs (LKS+) = experiment: Bone marrow HSPC proliferation by EdU incorporation and flow cytometry; format: in vivo; settings: 150 mg/kg oral gavage, mice
Protocol: . JCNI 2012; 104(6):476-487 (FIG. 2A). […].
Mice were then sacrificed at the indicated times (0, 12, 24, 36, or 48 hours following compound administration), and bone marrow was harvested (n=3 mice per time point), as previously described (Johnson et al. J. Clin. Invest. (2010) 120(7), 2528-2536). Four hours before the bone marrow was harvested, mice were treated with 100 μg of EdU by intraperitoneal injection (Invitrogen). Bone marrow mononuclear cells were harvested and immunophenotyped using previously described methods and percent EdU positive cells were then determined (Johnson et al. J. Clin. Invest. (2010) 120(7), 2528-2536). In brief, HSPCs were identified by expression of lineage markers (Lin−), Sca1 (S+), and c-Kit (K+).
Four hours before animals were sacrificed and the bone marrow was harvested, mice were treated with 100 μg of EdU by intraperitoneal injection. Three mice per group were sacrificed at 12 hours and the remaining three animals per group were sacrificed at 24 hours. Results are shown in FIG. 5A as the ratio of EdU positive cells for treated animals at 12 or 24 hour time points compared to control.
Further experiments were completed with Compound T examining dose response and longer periods of compound treatment. […] […].
Both compounds were administered at 150 mg/kg by oral gavage. One hour prior to harvesting bone marrow, EdU was IP injected to label cycling cells. Bone marrow was harvested at 12, 24, 36, and 48 hours after compound treatment and the percentage of EdU positive HSPC cells was determined at each time point.

[4] = tested on: MMTV-c-neu (Rb-positive) tumors; experiment: MMTV-c-neu HER2-driven (Rb-positive) luminal breast cancer mouse model; format: in vivo, mice
Source text: A HER2-driven model (Rb-positive) of breast cancer (Muller W J, Sinn E, Pattengale P K, Wallace R, Leder P. Single-step induction of mammary adenocarcinoma in transgenic mice bearing the activated c-neu oncogene. Cell 1988; 54: 105-15), that expresses c-neu (the mouse ortholog of human HER2) driven by the MMTV promoter was used in the following example. This model was chosen because previous studies in murine (Yu Q, Geng Y, Sicinski P. Specific protection against breast cancers by cyclin D1 ablation. Nature 2001; 411: 1017-21; Landis M W, Pawlyk B S, Li T, Sicinski P, Hinds P W. Cyclin D1-dependent kinase activity in murine development and mammary tumorigenesis. Cancer Cell 2006; 9: 13-22; Reddy H K, Mettus R V, Rane S G, Grana X, Litvin J, Reddy E P. Cyclin-dependent kinase 4 expression is essential for neu-induced breast tumorigenesis. Cancer Res 2005; 65: 10174-8; Yu Q, Sicinska E, Geng Y, Ahnstrom M, Zagozdzon A, Kong Y, et al. Requirement for CDK4 kinase function in breast cancer. Cancer Cell 2006; 9: 23-32.) and human HER2-positive breast cancer (An H X, Beckmann M W, Reifenberger G, Bender H G, Niederacher D. Gene amplification and overexpression of CDK4 in sporadic breast carcinomas is associated with high tumor cell proliferation. Am J Pathol 1999; 154: 113-8; Samady L, Dennis J, Budhram-Mahadeo V, Latchman DS. Activation of CDK4 gene expression in human breast cancer cells by the Brn-3b POU family transcription factor. Cancer Biol Ther 2004; 3: 317-23; Takano Y, Takenaka H, Kato Y, Masuda M, Mikami T, Saegusa M, et al. Cyclin D1 overexpression in invasive breast cancers: correlation with cyclin-dependent kinase 4 and oestrogen receptor overexpression, and lack of correlation with mitotic activity.
MMTV-neu mice were generated and observed post-lactation, with tumors observed with a median latency of approximately 25 weeks. Mice were enrolled in therapy studies when tumors reached a standard size (50-60 mm3) that permitted easy serial assessment. […] Tumor volumes were calculated by the formula, Volume=[(width)^2×length]/2. Tumor-bearing mice were euthanized at the indicated times due to predefined morbidity, tumor ulceration, or a tumor size of more than 1.5 cm in diameter.
Tumors were serially assessed weekly using caliper measurements. Therapeutic intervention began once tumors reached 40-64 mm^3. Tumor volume was calculated using the formula […]. All three compounds were administered orally via medicated diets (100 mg/kg/d). Medicated diets were administered for 28 consecutive days and then stopped. RECIST criteria were used to assess objective response rates.

CDK2/CyclinE = CDK2/CyclinE (Homo sapiens (Human), UniProt P24941); experiment: CDK2/cyclinE kinase assay (Nanosyn, microfluidic Caliper platform); format: biochemical
Protocol: (§2) Selected compounds disclosed herein were tested in CDK4/cyclinD1, CDK2/CycA and CDK2/cyclinE kinase assays by Nanosyn (Santa Clara, Calif.) to determine their inhibitory effect on these CDKs. The assays were performed using microfluidic kinase detection technology (Caliper Assay Platform). The compounds were tested in 12-point dose-response format in singlicate at Km for ATP. Phosphoacceptor substrate peptide concentration used was 1 μM for all assays and Staurosporine was used as the reference compound for all assays.

CDK4/CyclinD1 = CDK4/CyclinD1 (Homo sapiens (Human), UniProt P11802); experiment: CDK4/cyclinD1 kinase assay (Nanosyn, microfluidic Caliper platform); format: biochemical; settings: ATP at Km (200 uM); read-out: CDK4/CycD1 IC50
CDK4/CyclinD1, sequence (P11802 whole entry, species assumed): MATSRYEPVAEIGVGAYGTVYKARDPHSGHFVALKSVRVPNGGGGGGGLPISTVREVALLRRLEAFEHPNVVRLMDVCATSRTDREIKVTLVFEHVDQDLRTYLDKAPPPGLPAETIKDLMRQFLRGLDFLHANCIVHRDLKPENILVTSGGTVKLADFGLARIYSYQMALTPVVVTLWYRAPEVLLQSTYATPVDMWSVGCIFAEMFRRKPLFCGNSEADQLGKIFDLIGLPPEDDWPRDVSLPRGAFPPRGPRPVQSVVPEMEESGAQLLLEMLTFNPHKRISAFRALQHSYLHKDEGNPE
CDK4/CyclinD1, sequence (P24385 whole entry partner, species assumed): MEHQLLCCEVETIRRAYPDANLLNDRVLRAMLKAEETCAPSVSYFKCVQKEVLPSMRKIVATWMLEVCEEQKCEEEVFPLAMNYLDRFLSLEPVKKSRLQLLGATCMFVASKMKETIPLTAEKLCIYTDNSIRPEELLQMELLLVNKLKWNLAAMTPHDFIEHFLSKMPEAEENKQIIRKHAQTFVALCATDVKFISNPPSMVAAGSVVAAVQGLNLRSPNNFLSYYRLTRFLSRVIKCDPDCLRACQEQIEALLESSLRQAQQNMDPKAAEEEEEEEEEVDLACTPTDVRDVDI
Protocol: as §2, with “assays. Specifics of each assay are as described below:” for “assays.”
CDK4/CyclinD1: Enzyme concentration: 1 nM; ATP concentration: 200 μM; Incubation time: 10 hr.

CDK2/CyclinA = CDK2/CyclinA (Homo sapiens (Human), UniProt P24941); experiment: CDK2/CycA kinase assay (Nanosyn, microfluidic Caliper platform); format: biochemical
Protocol: as §2, with “assays. Specifics of each assay are as described below:” for “assays.”
CDK2/CyclinA: Enzyme concentration: 0.2 nM; ATP concentration: 50 μM; Incubation time: 3 hr.

bioavailability [3]: 2%
Compound: O=C1NCC2(CCCCC2)n2c1cc1cnc(Nc3ccc(N4CCNCC4)cn3)nc12 [Q]
inhibition of cellular proliferation of MCF-7 cells (FIGS. 21-24) [1]: significant inhibition of cellular proliferation
inhibition of cellular proliferation of ZR75-1 cells (FIGS. 25-28) [2]: significant inhibition of cellular proliferation
EdU incorporation into HSPCs at 12 and 24 hours (FIG. 5A) (HSPCs (LKS+)): some reduction at 12 hours and started to return to baseline at 24 hours

bioavailability [3]: 67%
Compound: O=C1NCC2(CCCCC2)n2c1cc1cnc(Nc3ccc(N4CCC(N5CCOCC5)CC4)cn3)nc12 [U]
inhibition of cellular proliferation of MCF-7 cells (FIGS. 21-24) [1]: significant inhibition of cellular proliferation
inhibition of cellular proliferation of ZR75-1 cells (FIGS. 25-28) [2]: significant inhibition of cellular proliferation
tumor volume during a 28 day course of therapy ([4]; 100 mg/kg/d in chow): marked decrease in tumor volume
objective response rate ([4]; 100 mg/kg/day medicated diet, 28 days, RECIST criteria): 100%

IC50 (CDK4/CyclinD1): 0.2 nM
Compound: CC(C)(O)CN1CCN(c2ccc(Nc3ncc4cc5n(c4n3)C3(CCCC3)CNC5=O)nc2)CC1 [EEE]

IC50 (CDK4/CyclinD1): 0.8 nM
Fold Selectivity (CDK2/CycE/CDK4) (CDK2/CyclinE): 21263
IC50 (CDK2/CyclinE; ATP at Km (100 uM), read-out: CDK2/CycE IC50): 16500 nM
Fold Selectivity (CDK2/CycA/CDK4) (CDK2/CyclinA): 3402
IC50 (CDK2/CyclinA; ATP at Km (50 uM)): 2640 nM
Compound: CC1CN(c2ccc(Nc3ncc4cc5n(c4n3)C3(CCCC3)CNC5=O)nc2)CCN1CCC(C)(C)C (centres unmarked) [PPP]

Continued, compound first:

Compound: CC1(C)CN(c2ccc(Nc3ncc4cc5n(c4n3)C3(CCCCC3)CNC5=O)nc2)CCN1CC1CC1 [H]
inhibition of cellular proliferation of MCF-7 cells (FIGS. 21-24) [1]: significant inhibition of cellular proliferation
inhibition of cellular proliferation of ZR75-1 cells (FIGS. 25-28) [2]: significant inhibition of cellular proliferation

Compound: C[C@@H]1CN(c2ccc(Nc3ncc4cc5n(c4n3)C3(CCCCC3)CNC5=O)nc2)C[C@H](C)N1C[C@@H](C)O [MM]
inhibition of cellular proliferation of MCF-7 cells (FIGS. 21-24) [1]: significant inhibition of cellular proliferation
inhibition of cellular proliferation of ZR75-1 cells (FIGS. 25-28) [2]: significant inhibition of cellular proliferation

Compound: CC1CN(c2ccc(Nc3ncc4cc5n(c4n3)C3(CCCCC3)CNC5=O)nc2)C[C@@H](C)N1CC1CC1 (some centres unmarked) [OO]
inhibition of cellular proliferation of MCF-7 cells (FIGS. 21-24) [1]: significant inhibition of cellular proliferation
inhibition of cellular proliferation of ZR75-1 cells (FIGS. 25-28) [2]: significant inhibition of cellular proliferation

Compound: CCC(C)[C@@H]1CNC(=O)c2cc3cnc(Nc4ccc(N5CCNCC5)cn4)nc3n21 (some centres unmarked) [VVV]
Fold Selectivity (CDK2/CycE/CDK4) (CDK2/CyclinE): 589

Compound: CN1CCN(C(=O)c2ccc(Nc3ncc4cc5n(c4n3)C3(CCCC3)CNC5=O)nc2)CC1 [BBB]
EC50 ([1]; Homo sapiens, MCF7, 144 h, six days): 123 nM
